According to patent US20240294531A1, “COVALENT HETEROCYCLES AND USES THEREOF” (Kumquat Biosciences Inc., priority 2022, published 2024):

Assays:
BTK wildtype protein = BTK wildtype protein (Homo sapiens (Human), UniProt Q06187); assay: BTK wildtype HTRF displacement assay; type: binding; details: 1-hour incubation; read-out: BTK (wt) IC50
Protocol: (§1) The ability of a compound to bind BTK wildtype or BTK C481S proteins was measured using an HTRF displacement assay. The assay measures the ability of a compound to displace a tracer ligand bound to the active site of BTK wildtype or BTK C481 S proteins.
(§2) Test compounds were prepared as 10 mM stock solutions in DMSO (Fisher cat #BP231-100). Compounds to be assayed were dispensed using an Echo 650 acoustic dispenser (Beckman Coulter) on a 384 well plate in 6 doses applying four-fold dilutions from the highest concentration of 5 μM. N-terminal GST-tagged recombinant full-length BTK wildtype protein and BTK C481 S protein 2-659 were purchased from Carna Biosciences, Inc (Kobe, Japan). BTK wildtype or BTK C481S protein was separately incubated with compound in assay buffer containing kinase tracer 239 (Thermo Fisher) and Mab anti GST-Th (PerkinElmer). After a 1-hour incubation at room temperature, the HTRF signal was measured using SPARK plate reader (Tecan) using the TR fluorescence mode. The HTRF ratio is calculated for DMSO, no protein control and compound samples using the following equation: HTRF ratio=Emmision665/Emmision620×10^4. The signal for the no protein control samples was used to subtract background noise from the DMSO and compound samples. Background subtracted HTRF ratios are used to calculate the percent inhibition, where DMSO controls are set to 0 percent inhibition. The percent inhibition is plotted as a function of compound concentration and IC50 values were calculated from a four-parameter logistic fit in Prism v9.4 (GraphPad), where the bottom and top are constrained to 0 and 100, respectively.

BTK C481S protein = BTK C481S protein (Homo sapiens (Human), UniProt Q06187, C481S); assay: BTK C481S HTRF displacement assay; type: binding; details: 1-hour incubation
Protocol: as §1, §2
The same assay was used to measure the activity of selected compounds of the formula TBM-L-hydrogen. Using the IC50 value observed for a given reversible test compound, the KI of the test compound can be assessed using the formula KI=IC50/(1+([Tracer]/Kd)), wherein the tracer concentration in the assay [Tracer] is 50 nM and the tracer Kd for BTK C481S is 54 nM.

Sequence of BTK wildtype protein (Q06187 2-659): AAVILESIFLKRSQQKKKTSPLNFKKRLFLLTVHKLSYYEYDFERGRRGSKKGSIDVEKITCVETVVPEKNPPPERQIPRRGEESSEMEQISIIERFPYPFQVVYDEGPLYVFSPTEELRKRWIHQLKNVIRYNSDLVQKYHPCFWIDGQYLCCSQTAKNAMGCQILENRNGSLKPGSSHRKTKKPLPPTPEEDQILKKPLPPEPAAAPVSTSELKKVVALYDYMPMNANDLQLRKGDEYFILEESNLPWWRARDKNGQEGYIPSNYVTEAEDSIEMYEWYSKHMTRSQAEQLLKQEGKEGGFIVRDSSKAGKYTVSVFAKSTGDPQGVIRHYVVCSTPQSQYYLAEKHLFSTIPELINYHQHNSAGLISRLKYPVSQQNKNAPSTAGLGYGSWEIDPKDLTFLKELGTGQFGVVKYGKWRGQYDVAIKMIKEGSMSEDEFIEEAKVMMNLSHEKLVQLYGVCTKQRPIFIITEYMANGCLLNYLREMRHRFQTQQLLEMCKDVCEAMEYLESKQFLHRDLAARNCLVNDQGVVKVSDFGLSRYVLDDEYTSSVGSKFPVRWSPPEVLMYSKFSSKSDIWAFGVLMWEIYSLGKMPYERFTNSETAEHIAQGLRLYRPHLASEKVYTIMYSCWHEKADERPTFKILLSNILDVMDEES
Sequence of BTK C481S protein (Q06187 2-659 C481S): as the sequence (Q06187 2-659) above, with C480S counted along it

| IC50 (BTK wildtype protein) [µM] | IC50 (BTK C481S protein) [µM] | Structure (SMILES) |
| --- | --- | --- |
| ≤ 1 | > 1 | COc1ccc(F)cc1C(=O)NCc1ccc(-c2nn(C3(CCN(C)C(=O)n4cncn4)CC3)c3ncnc(N)c23)cc1 [Compound 225, N-(2-(1-(4-amino-3-(4-((5-fluoro-2-methoxybenzamido)methyl)phenyl)-1H-pyrazolo[3,4-d]pyrimidin-1-yl)cyclopropyl)ethyl)-N-methyl-1H-1,2,4-triazole-1-carboxamide] |
| > 1 | > 1 | CN(CC1CNc2c(C(N)=O)c(-c3ccc(Oc4ccccc4)cc3)nn2C1)C(=O)n1cncn1 (centres unmarked) [Compound 149, 6-((N-methyl-1H-1,2,4-triazole-1-carboxamido)methyl)-2-(4-phenoxyphenyl)-4,5,6,7-tetrahydropyrazolo[1,5-a] pyrimidine-3-carboxamide] |
| ≤ 1 | ≤ 1 | COc1ccc(F)cc1C(=O)NCc1ccc(-c2nn(C3CCC3N(C)C(=O)n3cncn3)c3ncnc(N)c23)cc1 (centres unmarked) [Compound 181, N-(2-(4-amino-3-(4-((5-fluoro-2-methoxybenzamido)methyl)phenyl)-1H-pyrazolo[3,4-d]pyrimidin-1-yl)cyclobutyl)-N-methyl-1H-1,2,4-triazole-1-carboxamide] |
| ≤ 1 | ≤ 1 | COc1ccc(C)cc1C(=O)NCc1ccc(-c2nn(C3CCC(N(C)C(=O)n4cncn4)C3)c3ncnc(N)c23)cc1 (centres unmarked) [Compound 275, N-(3-(4-amino-3-(4-((2-methoxy-5-methylbenzamido)methyl)phenyl)-1H-pyrazolo[3,4-d]pyrimidin-1-yl)cyclopentyl)-N-methyl-1H-1,2,4-triazole-1-carboxamide] |
| ≤ 1 | ≤ 1 | CN(C(=O)n1cncn1)C1CCCCC1n1nc(-c2ccc(Oc3ccccc3)cc2)c2c(N)ncnc21 (centres unmarked) [Compound 263, N-(2-(4-amino-3-(4-phenoxyphenyl)-1H-pyrazolo[3,4-d]pyrimidin-1-yl)cyclohexyl)-N-methyl-1H-1,2,4-triazole-1-carboxamide] |
| ≤ 1 | ≤ 1 | NC(=O)c1c(-c2ccc(Oc3ccccc3)cc2)nn(C[C@@H]2CCCCN2C(=O)n2cncn2)c1N [Compound 184, (S)-1-((1-(1H-1,2,4-triazole-1-carbonyl)piperidin-2-yl)methyl)-5-amino-3-(4-phenoxyphenyl)-1H-pyrazole-4-carboxamide] |
| > 1 | ≤ 1 | NC(=O)c1c(-c2ccc(Oc3ccccc3)cc2)nn2c1NCCC2[C@@H]1CCCN1C(=O)n1cncn1 (stereo partly drawn) [Compound 280, 7-((S)-1-(1H-1,2,4-triazole-1-carbonyl)pyrrolidin-2-yl)-2-(4-phenoxyphenyl)-4,5,6,7-tetrahydropyrazolo[1,5-a] pyrimidine-3-carboxamide] |
| ≤ 1 | > 1 | COc1ccc(C)cc1C(=O)NCc1ccc(-c2nn(CC3CCCCN3C(=O)n3cnnn3)c3ncnc(N)c23)cc1 (centres unmarked) [Compound 158, N-(4-(1-((1-(1H-tetrazole-1-carbonyl)piperidin-2-yl)methyl)-4-amino-1H-pyrazolo[3,4-d]pyrimidin-3-yl)benzyl)-2-methoxy-5-methylbenzamide] |
| ≤ 1 | ≤ 1 | COc1ccc(C)cc1C(=O)NCc1ccc(-c2nn(C3CCCC(N(C)C(=O)n4cnnn4)C3)c3ncnc(N)c23)cc1 (centres unmarked) [Compound 219, N-(3-(4-amino-3-(4-((2-methoxy-5-methylbenzamido)methyl)phenyl)-1H-pyrazolo[3,4-d]pyrimidin-1-yl)cyclohexyl)-N-methyl-1H-tetrazole-1-carboxamide] |

Continued, molecule first:

| Structure (SMILES) | IC50 (BTK wildtype protein) [µM] | IC50 (BTK C481S protein) [µM] |
| --- | --- | --- |
| COc1ccc(F)cc1C(=O)NCc1ccc(-c2nn(CC3CCCCC3N(C)C(=O)n3cncn3)c(N)c2C(N)=O)cc1 (centres unmarked) [Compound 229, N-(2-((5-amino-4-carbamoyl-3-(4-((5-fluoro-2-methoxybenzamido)methyl)phenyl)-1H-pyrazol-1-yl)methyl)cyclohexyl)-N-methyl-1H-1,2,4-triazole-1-carboxamide] | ≤ 1 | ≤ 1 |
| COc1ccc(F)cc1C(=O)NCc1ccc(-c2nn(C[C@H]3CCCN3C(=O)n3cncn3)c3ncnc(N)c23)cc1 [Compound 292, (R)-N-(4-(1-((1-(1H-1,2,4-triazole-1-carbonyl)pyrrolidin-2-yl)methyl)-4-amino-1H-pyrazolo[3,4-d]pyrimidin-3-yl)benzyl)-5-fluoro-2-methoxybenzamide] | ≤ 1 | ≤ 1 |
| COc1ccc(F)cc1C(=O)NCc1ccc(-c2nn(C(C)CN(C)C(=O)n3cncn3)c(N)c2C(N)=O)cc1 (centres unmarked) [Compound 218, N-(2-(5-amino-4-carbamoyl-3-(4-((5-fluoro-2-methoxybenzamido)methyl)phenyl)-1H-pyrazol-1-yl)propyl)-N-methyl-1H-1,2,4-triazole-1-carboxamide] | ≤ 1 | ≤ 1 |
| CN(CC1CCNc2c(C(N)=O)c(-c3ccc(Oc4ccccc4)cc3)nn21)C(=O)n1cncn1 (centres unmarked) [Compound 113, 7-((N-methyl-1H-1,2,4-triazole-1-carboxamido)methyl)-2-(4-phenoxyphenyl)-4,5,6,7-tetrahydro-pyrazolo[1,5-a]pyrimidine-3-carboxamide] | > 1 | > 1 |
| CN(C(=O)n1cnc(Cl)n1)C1CCC(n2nc(-c3ccc(Oc4ccccc4)cc3)c3c(N)ncnc32)CC1 (centres unmarked) [Compound 299, N-(4-(4-amino-3-(4-phenoxyphenyl)-1H-pyrazolo[3,4-d]pyrimidin-1-yl)cyclohexyl)-3-chloro-N-methyl-1H-1,2,4-triazole-1-carboxamide] | ≤ 1 | ≤ 1 |
| CN(C(=O)n1cncn1)[C@H]1CCCC[C@H](n2nc(-c3ccc(Oc4ccccc4)cc3)c(C(N)=O)c2N)C1 [Compound 252, N-((1S,3S)-3-(5-amino-4-carbamoyl-3-(4-phenoxyphenyl)-1H-pyrazol-1-yl)cycloheptyl)-N-methyl-1H-1,2,4-triazole-1-carboxamide] | ≤ 1 | ≤ 1 |
| COc1ccc(F)cc1C(=O)NCc1ccc(-c2nn(C(CCN(C)C(=O)n3cncn3)Cc3ccccc3)c3ncnc(N)c23)cc1 (centres unmarked) [Compound 195, N-(3-(4-amino-3-(4-((5-fluoro-2-methoxybenzamido)methyl)phenyl)-1H-pyrazolo[3,4-d]pyrimidin-1-yl)-4-phenylbutyl)-N-methyl-1H-1,2,4-triazole-1-carboxamide] | > 1 | > 1 |
| COc1ccc(F)cc1C(=O)NCc1ccc(-c2nn(C[C@@H]3C[C@H](O)CN3C(=O)n3cncn3)c3ncnc(N)c23)cc1 [Compound 241, N-(4-(4-amino-1-(((2S,4S)-4-hydroxy-1-(1H-1,2,4-triazole-1-carbonyl)pyrrolidin-2-yl)methyl)-1H-pyrazolo[3,4-d]pyrimidin-3-yl)benzyl)-5-fluoro-2-methoxybenzamide] | ≤ 1 | ≤ 1 |
| COc1ccc(F)cc1C(=O)NCc1ccc(-c2nn(C3(CN(C)C(=O)n4cnnn4)CC3)c3ncnc(N)c23)cc1 [Compound 119, N-((1-(4-amino-3-(4-((5-fluoro-2-methoxybenzamido)methyl)phenyl)-1H-pyrazolo[3,4-d]pyrimidin-1-yl)cyclopropyl)methyl)-N-methyl-1H-tetrazole-1-carboxamide] | ≤ 1 | > 1 |
| COc1ccc(F)cc1C(=O)NCc1ccc(-c2nn(C(CC3CCCC3)CN(C)C(=O)n3cncn3)c3ncnc(N)c23)cc1 (centres unmarked) [Compound 206, N-(2-(4-amino-3-(4-((5-fluoro-2-methoxybenzamido)methyl)phenyl)-1H-pyrazolo[3,4-d]pyrimidin-1-yl)-3-cyclopentylpropyl)-N-methyl-1H-1,2,4-triazole-1-carboxamide] | > 1 | > 1 |
| NC(=O)c1c(-c2ccc(Oc3ccccc3)cc2)nn2c1NCCC2CN(C(=O)n1cncn1)C1CC1 (centres unmarked) [Compound 240, 7-((N-cyclopropyl-1H-1,2,4-triazole-1-carboxamido)methyl)-2-(4-phenoxyphenyl)-4,5,6,7-tetrahydro-pyrazolo[1,5-a]pyrimidine-3-carboxamide] | > 1 | > 1 |
| COc1ccc(F)cc1C(=O)NCc1ccc(-c2nn(C3CCCCC3CN(C)C(=O)n3cncn3)c3ncnc(N)c23)cc1 (centres unmarked) [Compound 198, N-((2-(4-amino-3-(4-((5-fluoro-2-methoxybenzamido)methyl)phenyl)-1H-pyrazolo[3,4-d]pyrimidin-1-yl)cyclohexyl)methyl)-N-methyl-1H-1,2,4-triazole-1-carboxamide] | ≤ 1 | ≤ 1 |
| CC(CC1CCNc2c(C(N)=O)c(-c3ccc(Oc4ccccc4)cc3)nn21)N(C)C(=O)n1cncn1 (centres unmarked) [Compound 309, 7-(2-(N-methyl-1H-1,2,4-triazole-1-carboxamido)propyl)-2-(4-phenoxyphenyl)-4,5,6,7-tetrahydro-pyrazolo[1,5-a]pyrimidine-3-carboxamide] | ≤ 1 | ≤ 1 |
